Data: US20090137411A1, “Methods and biochips for detecting small molecule compounds” (priority 2004, published 2009)

system: anti-drug mouse monoclonal antibodies; test: Biochip competitive immunoassay for prohibited substances in urine; type: binding; conditions: competitive immunoassay on chip

Row | Molecule | Cutoff value (the 50% inhibitory concentration)
1 | CN[C@@H](C)Cc1ccccc1 [Methamphetamine] | 4.0 µg/L
2 | C[C@H]1O[C@@H](O[C@H]2[C@@H](O)C[C@H](O[C@H]3[C@@H](O)C[C@H](O[C@H]4CC[C@@]5(C)[C@H](CC[C@@H]6[C@@H]5C[C@@H](O)[C@]5(C)[C@@H](C7=CC(=O)OC7)CC[C@]65O)C4)O[C@@H]3C)O[C@@H]2C)C[C@H](O)[C@@H]1O [Digoxin, digoxin] | 2.8 µg/L
3 | CC(N)Cc1ccccc1 (stereo not shown) [Amphetamine, amphetamine] | 5.2 µg/L
4 | gentamicin | 2.5 µg/L
5 | C[C@]12CC[C@H]3[C@@H](CCC4=CC(=O)CC[C@@]43C)[C@@H]1CC[C@@H]2O [Testosterone] | 0.6 µg/L

system: anti-morphine antibodies; test: Qualitative screening of athlete urines on chip (morphine); type: binding, mouse; conditions: athlete urine samples containing the substance

Row | Molecule | Cross-reactivity with the anti-morphine antibodies
6 | CCOC(=O)C1(c2ccccc2)CCN(C)CC1 [pethidine] | Cross-reactivity with the anti-morphine antibodies
7 | COc1ccc2c3c1O[C@H]1[C@@H](O)CC[C@H]4[C@@H](C2)N(C)CC[C@@]341 [dihydrocodeine] | Cross-reactivity with the anti-morphine antibodies
